Values quoted from earlier work in US11992483B2, “Emulsions for local anesthetics” (Cali Pharmaceuticals, LLC, priority 2021, dated 2024).
Structures can show the parent of a compound that is named as a salt. Where two headings read alike, the source gives them in different places.

Conditions: for log P: octanol/water

| Structure (SMILES) | solubility in water | log P | P (octanol:water partition coefficient) | log P (hydrochloride) | P (octanol:water partition coefficient) (hydrochloride) |
| --- | --- | --- | --- | --- | --- |
| CCCN1CCCC[C@H]1C(=O)Nc1c(C)cccc1C [ropivacaine free base, ropivacaine] | insoluble in water | 2.9 | 794 | – | – |
| CCCN1CCCC[C@H]1C(=O)Nc1c(C)cccc1C [ropivacaine hydrochloride] | – | – | – | 1.1 | 14 |
